A short description of data set [1]: Metabolic stability in rat liver microsomes. It counts as in vitro ADME, SD rat. The following applies: rat liver microsomes 0.5 mg/mL, compound 1 μM, NADPH, 37° C.; for microsomal CLint at 1 μM / half-life at 1 μM: Sprague-Dawley, pH 7.4; for half-life at 1 μM: read-out: t1/2 in rat liver microsomes. The method, then:
(§1) Experiments in microsomes: Human liver microsomes: 0.5 mg/mL, Xenotech; Rat liver microsomes: 0.5 mg/mL, Xenotech; Coenzyme (NADPH/NADH): 1 mM, Sigma Life Science; Magnesium chloride: 5 mM, 100 mM phosphate buffer (pH 7.4).
(§2) Preparation of stock solution: Powder of the example compound 1-7 was accurately weighed and dissolved in DMSO to 5 mM. Preparation of phosphate buffer (100 mM, pH7.4): A pre-formulated 0.5M potassium dihydrogen phosphate (150 mL) was mixed with 0.5M dibasic potassium phosphate (700 mL). The pH of the mixture was adjusted to 7.4 with 0.5M dibasic potassium phosphate solution. The mixture was diluted 5-fold with ultrapure water before use, and magnesium chloride was added to obtain a phosphate buffer (100 mM) containing 100 mM potassium phosphate, 3.3 mM magnesium chloride, pH 7.4. A NADPH regeneration system solution (containing 6.5 mM NADP, 16.5 mM G-6-P, 3 U/mL G-6-PD, 3.3 mM magnesium chloride) was prepared and placed on wet ice prior to use. Preparation of stop solution: acetonitrile solution containing 50 ng/mL propranolol hydrochloride and 200 ng/mL tolbutamide (internal standard). 25057.5 μL of phosphate buffer (pH 7.4) was taken into a 50 mL centrifuge tube, to which 812.5 μL human liver microsomes were added, and mixed to obtain a liver microsome dilution solution with a protein concentration of 0.625 mg/mL. 25057.5 μL of phosphate buffer (pH 7.4) was taken into a 50 mL centrifuge tube, to which 812.5 μL SD rat liver microsomes were added, and mixed to obtain a liver microsome dilution solution with a protein concentration of 0.625 mg/mL.
(§3) Incubation of the samples: The stock solution of the respective compound was respectively diluted to 0.25 mM with an aqueous solution containing 70% acetonitrile, and used as a working solution, ready for use. 398 μL of the dilution solution of human liver microsomes or rat liver microsome were added to a 96-well incubation plate (N=2), respectively, and 2 μL of 0.25 mM working solution was added and mixed.
(§4) Metabolic stability assay: 300 μL of pre-chilled stop solution was added to each well of a 96-well deep well plate and placed on ice as a stop plate. The 96 well incubation plate and NADPH regeneration system were placed in a 37° C. water bath box, shaken at 100 rpm and pre-incubated for 5 min. 80 μL of incubation solution was taken out from each well of the incubation plate and added to the stop plate, mixed, and replenished with 20 μL of NADPH regeneration system solution as a 0-min sample. 80 μL of NADPH regeneration system solution was added to each well of the incubation plate to start the reaction and start counting. […] Separately, 100 μL of the reaction solution was taken at 10, 30, and 90 min reaction, respectively, added to a stop plate, and vortexed for 3 minutes to terminate the reaction. The stop plate was centrifuged at 5000×g at 4° C. for 4 min. 100 μL of the supernatant was added to a 96-well plate to which 100 μL of distilled water was previously added, mixed, and analyzed by LC-MS/MS.
(§5) Data analysis: The peak areas of the corresponding compound and internal standard were detected by LC-MS/MS system, and the ratio of the peak area of the compound to the internal standard was calculated. The slope was measured by plotting the natural logarithm of the percent of compound remaining versus time, and t1/2 and CLint were calculated according to the formula, where V/M is equal to 1/protein concentration.

A short description of data set [2]: Pharmacokinetic evaluation in rats. It counts as in vivo, Sprague-Dawley rats. The following applies: rat; for AUC(0-inf) / AUC(0-t) / Tmax / MRT inf / F / half-life / Cmax: male, Sprague-Dawley; for AUC(0-inf) / AUC(0-t) / Tmax / MRT inf / Cmax: plasma; for MRT inf: read-out: MRTINF_pred; for F / half-life: in vivo. The method, then:
6 male Sprague-Dawley rats (7-8 weeks old, and weighing approximately 210 g) were divided into 2 groups with 3 rats in each group. The rats were intravenously or orally administered a single dose of compound (3 mg/kg intravenously, 10 mg/kg orally) to compare pharmacokinetic differences.
The rats were raised on standard food and water. Fasting was started 16 hours before the test. The drug was dissolved with PEG400 and dimethyl sulfoxide. The blood samples were collected from eyelids at the time points of 0.083 hours, 0.25 hours, 0.5 hours, 1 hour, 2 hours, 4 hours, 6 hours, 8 hours, 12 hours, and 24 hours after administration.
Rats were briefly anesthetized after inhalation of diethyl ether and 300 μL of blood sample was collected from the eyelids into test tubes. There was 30 μL of 1% heparin salt solution in the test tube. Tubes were dried at 60° C. overnight before use. After the blood sample was collected at a later time point, the rats were sacrificed after ether anesthesia.
Immediately after the collection of the blood sample, the test tube was gently inverted at least 5 times to ensure sufficient mixing and then placed on ice. The blood sample was centrifuged at 5000 rpm at 4° C. for 5 minutes to separate the plasma from the red blood cells. 100 μL of plasma was aspirated into a clean plastic centrifuge tube with a pipette, marking with the name of the compound and time point. Plasma was stored at −80° C. prior to analysis. The concentration of the compound of the present disclosure in plasma was determined by LC-MS/MS. The pharmacokinetic parameters were calculated based on the blood concentration of each animal at different time points.

Data set [3] is described as follows: Metabolic stability in human liver microsomes. It counts as in vitro ADME. Conditions: pH 7.4, human liver microsomes 0.5 mg/mL, compound 1 μM, NADPH, 37° C.; for half-life at 1 μM: read-out: t1/2 in human liver microsomes. The procedure: as §1, §2, §3, §4, §5

Like-named read-outs stand apart in the source and are kept apart here.

A word on the microsomal CLint: it is the capacity of the preparation to metabolise the compound, expressed as a volume cleared per time. Low readings indicate slow turnover, high ones rapid turnover. As a reminder, the AUC(0-inf) is the area under the concentration-time curve extrapolated to infinity. A low value points to low exposure. The term AUC(0-t) denotes the area under the concentration-time curve up to a stated or last time point. A high value points to more exposure. The Tmax is the time from dosing to the highest level. A word on the Cmax: it is the maximum level reached in the sampled fluid or tissue. For the compound `[2H]C([2H])(NC(=O)c1nc(C)c2cc(Oc3ccccc3)ccc2c1O)C(=O)O` [Compound 11, N-[(4-hydroxy-1-methyl-7-phenoxy-3-isoquinolinyl)carbonyl]-2,2-d2-glycine], in data set [1], the intrinsic clearance (microsomal CLint) at 1 μM was below 8.6 µL/min/mg and the half-life at 1 μM was above 2.42 h. Also, in data set [2] (IV, 3 mg/kg single dose), the AUC(0-inf) was determined as 51.6 µg·h/mL, the AUC(0-t) was 51.6 µg·h/mL, the time to peak (Tmax) worked out at 0.08 h and the MRT inf was determined as 2.84 h. In data set [2] (IV, 3 mg/kg single dose), the highest level (Cmax) was 19000 ng/mL and the Vz_pred was 0.21 L/kg. In addition, in data set [2] (PO, 10 mg/kg single dose), the total exposure AUC(0-inf) was 261 µg·h/mL, the AUC(0-t) is 260 µg·h/mL, the Tmax was determined as 4 h and the MRT inf was 5.87 h. In data set [2] (PO, 10 mg/kg single dose), the Cmax amounted to 24600 ng/mL and the Vz_pred is on record as 0.16 L/kg. This compound had a F in data set [2] of 151.17%. Moreover, the half-life in data set [2] (iv, 3 mg/kg) was 2.43 h. For the same compound, in data set [2] (po, 10 mg/kg), the half-life is 2.77 h.
Take `[2H]Cc1nc(C(=O)NCC(=O)O)c(O)c2ccc(Oc3ccccc3)cc12` [Compound 13, N-[(4-hydroxy-1-d-methyl-7-phenoxy-3-isoquinolinyl)carbonyl] glycine]: in data set [3], the intrinsic metabolic clearance (microsomal CLint) at 1 μM is below 8.6 µL/min/mg and the half-life at 1 μM is above 2.42 h. In data set [1], the microsomal CLint at 1 μM was below 8.6 µL/min/mg and the half-life at 1 μM was above 2.42 h.
As to `[2H]c1cc([2H])c(Oc2ccc3c(O)c(C(=O)NCC(=O)O)nc(C)c3c2)c([2H])c1` [Compound 23], in data set [3], the microsomal CLint at 1 μM is below 8.6 µL/min/mg and the half-life at 1 μM was above 2.42 h. In data set [1], the intrinsic clearance (microsomal CLint) at 1 μM was below 8.6 µL/min/mg and the half-life at 1 μM is above 2.42 h.
On to `[2H]c1c([2H])c([2H])c(Oc2ccc3c(O)c(C(=O)NCC(=O)O)nc(C)c3c2)c([2H])c1[2H]` [Compound 32, N-[(4-hydroxy-1-methyl-7-(d5-phenoxy)-3-isoquinolinyl)carbonyl] glycine], for which, in data set [3], the microsomal CLint at 1 μM is below 8.6 µL/min/mg and the half-life at 1 μM is above 2.42 h. Further, in data set [1], the microsomal CLint at 1 μM is below 8.6 µL/min/mg and the half-life at 1 μM was above 2.42 h. In data set [2] (IV, 3 mg/kg single dose), the AUC(0-inf) is 55.9 µg·h/mL, the AUC(0-t) stood at 55.9 µg·h/mL, the Tmax was 0.75 h and the MRT inf came out at 3.14 h. In data set [2] (IV, 3 mg/kg single dose), this compound had a Cmax of 12200 ng/mL and a Vz_pred of 0.18 L/kg. Besides, in data set [2] (PO, 10 mg/kg single dose), the AUC(0-inf) is 185 µg·h/mL, the area under the curve AUC(0-t) is 185 µg·h/mL, the time to peak (Tmax) was 0.83 h and the MRT inf turned out to be 5.33 h. In data set [2] (PO, 10 mg/kg single dose), this compound returned a maximum concentration (Cmax) of 17700 ng/mL and a Vz_pred of 0.21 L/kg. Besides, in data set [2], the F is reported as 99.05%. The half-life in data set [2] (iv, 3 mg/kg) was 2.49 h. Besides, the half-life in data set [2] (po, 10 mg/kg) was 2.43 h.
Take `[2H]C([2H])(NC(=O)c1nc(C([2H])([2H])[2H])c2cc(Oc3ccccc3)ccc2c1O)C(=O)O` [Compound 36, N-[(4-hydroxy-1-(d3-methyl)-7-phenoxy-3-isoquinolinyl)carbonyl]-2,2-d2-glycine]: in data set [3], the microsomal CLint at 1 μM is below 8.6 µL/min/mg and the half-life at 1 μM was above 2.42 h. For the same compound, in data set [1], the microsomal CLint at 1 μM was below 8.6 µL/min/mg and the half-life at 1 μM was above 2.42 h.
For `[2H]c1cccc(Oc2ccc3c(O)c(C(=O)NCC(=O)O)nc(C)c3c2)c1` [Compound 46, N-[(4-hydroxy-1-methyl-7-(3-d-phenoxy)-3-isoquinolinyl)carbonyl]glycine], the microsomal CLint at 1 μM in data set [3] and in data set [1] was below 8.6 µL/min/mg in each case. The half-life at 1 μM in data set [3] and in data set [1] was above 2.42 h each time.
Take `[2H]c1cc([2H])c(Oc2ccc3c(O)c(C(=O)NC([2H])([2H])C(=O)O)nc(C)c3c2)c([2H])c1` [Compound 47]: the microsomal CLint at 1 μM in data set [3] and in data set [1] was below 8.6 µL/min/mg each time. In addition, the half-life at 1 μM in data set [3] and in data set [1] was above 2.42 h each time.
On to `[2H]c1c([2H])c([2H])c(Oc2ccc3c(O)c(C(=O)NC([2H])([2H])C(=O)O)nc(C)c3c2)c([2H])c1[2H]` [Compound 48, N-[(4-hydroxy-1-methyl-7-(d5-phenoxy))-3-(3-isoquinolinyl)carbonyl]-2,2-d2-glycine], for which, in data set [3], the microsomal CLint at 1 μM was below 8.6 µL/min/mg and the half-life at 1 μM was above 2.42 h. In data set [1], the intrinsic clearance (microsomal CLint) at 1 μM was below 8.6 µL/min/mg and the half-life at 1 μM is above 2.42 h.
Take `[2H]c1cccc(Oc2ccc3c(O)c(C(=O)NC([2H])([2H])C(=O)O)nc(C)c3c2)c1` [Compound 49, N-[(4-hydroxy-1-methyl-7-(3-d-phenoxy)-3-isoquinolinyl)carbonyl]-2,2-d2-glycine]: in data set [3], the microsomal CLint at 1 μM was below 8.6 µL/min/mg and the half-life at 1 μM was above 2.42 h. In addition, in data set [1], the intrinsic metabolic clearance (microsomal CLint) at 1 μM was below 8.6 µL/min/mg and the half-life at 1 μM is above 2.42 h. Besides, in data set [2] (IV, 3 mg/kg single dose), the area under the curve AUC(0-inf) was 49.5 µg·h/mL, the AUC(0-t) is 49.4 µg·h/mL, the Tmax was 0.08 h and the MRT inf is 2.85 h. Besides, in data set [2] (IV, 3 mg/kg single dose), the concentration peaked (Cmax) at 19500 ng/mL and the Vz_pred was 0.25 L/kg. In addition, in data set [2] (PO, 10 mg/kg single dose), the total exposure AUC(0-inf) stood at 222 µg·h/mL, the AUC(0-t) is 218 µg·h/mL, the time of peak concentration (Tmax) was found to be 2.67 h and the MRT inf was 5.83 h. In data set [2] (PO, 10 mg/kg single dose), this compound displayed a maximum concentration (Cmax) of 25400 ng/mL and a Vz_pred of 0.24 L/kg. Also, the F in data set [2] was 132.44%. For the same compound, the half-life in data set [2] (iv, 3 mg/kg) is 2.89 h. Moreover, in data set [2] (po, 10 mg/kg), the half-life was 3.33 h.
Regarding “N-[(4-hydroxy-1-(d-methyl)-7-phenoxy-3-isoquinolinyl) carbonyl]-2,2-d2-glycine [Compound 34]”, in data set [1], the “CLint in rat liver microsomes” value is below 8.6 µL/min/mg and the “t1/2 in rat liver microsomes” value was above 2.42 h.
